Laboratory results taken from article PMC8560939 (Scientific Reports, 2021).
Like-named read-outs stand apart in the source and are kept apart here. One block for each compound: values may come before it.

Experiments:
LDHB [1] = target: T1, LDHB (Homo sapiens, UniProt P07195); test: LDHB enzyme assay by RapidFire-MS (NADH to NAD+ conversion); assay type: biochemical; conditions: RF-MS
T1 construct: purchased R&D Systems
Experimental: (§1) To compare the selectivity potency of the 22 selected compounds, we evaluated the compounds against human LDHB and LDHA by RF-MS. […] The Km value was also determined for the LDHA reaction. All EC50 values are listed in Supplementary Table 1.
We screened for compounds (final concentration: 10 μM) within pooled libraries consisting of more than 345,000 compounds. Each compound in DMSO (1 mM) was dispensed into 384-well V base plates (100 nL/well) using an Echo 555 acoustic dispenser (Labcyte, Sunnyvale, CA, USA). LDHB (5 μL) was diluted in assay buffer (20 mM Tris [pH 7.5], containing 2 mM DTT, 0.005% Triton X100, and 0.005% BSA) and dispensed into assay plates (final concentration: 0.25 nM). […] After incubation for 30 min at room temperature, acetonitrile (10 μL) and water (50 μL) were added to quench the reaction. All additions were performed using a Multidrop Combi (Thermo Fisher Scientific, Waltham, MA, USA). Assay plates were sealed and centrifuged (2700× g for 10 min) before storage at − 20 °C.
(§2) For RF-MS (Agilent, Wakefield, MA, USA), the enzyme reaction solution (5 μL) was aspirated directly from the quenched assay plates and loaded onto a C8 solid-phase extraction cartridge (Agilent) with a mobile phase of water containing DHAA (5 mM) for 2500 ms at a flow rate of 1.25 mL/min. The analytes were then co-eluted into the mass spectrometer using water:acetonitrile:acetone (2:1:1) containing ammonium acetate (5 mM) for 5000 ms at a flow rate of 1.0 ml/min. […] The extracted ion chromatograms for each transition were integrated and processed using RapidFire Integrator (Agilent). The data for each well were normalised using the monitoring product conversion with the ratio of AUCproduct / (AUCproduct + AUCsubstrate).
To determine the compound activities, percent inhibition data normalised to 0% (DMSO only) and 100% inhibition (no-enzyme control) wells were calculated. Data analysis was performed using the Tibco Spotfire (Boston, MA, USA) packages.
(§3) The reaction product was measured by RF-MS. To estimate the Km and Vmax values, the initial rates were fit to the Michaelis–Menten equation. EC50 and Hill slope calculation and curve fitting using four-parameter fits were performed using GraphPad Prism v6.07 (GraphPad Software, San Diego, CA, USA) or XLfit (IDBS, Guildford, UK) with nonlinear regression analysis, wherein the EC50 value equaled the concentration at which the inflection point of the fitted model was reached. The quality and robustness of the screening campaign process were determined by analysing the Z’ factor.

human LDHA = target: T2, human LDHA (Homo sapiens, UniProt P00338); test: LDHA enzyme assay by RapidFire-MS; assay type: biochemical
T2 construct: purchased R&D Systems
Experimental: as §1
These concentrations were chosen based on fitting to the Michaelis–Menten model with the Km values (Supplementary Figure S2).
as §2
To determine the compound activities, percent inhibition data normalised to 0% (DMSO only) and 100% inhibition (no-enzyme control) wells were calculated. […]
The reaction product was measured by RF-MS. […] The quality and robustness of the screening campaign process were determined by analysing the Z’ factor.

LDHB [2] = target: T1, LDHB; test: Substrate-competition assay (varying NADH or pyruvate); assay type: biochemical; conditions: for Vmax (NADH): NADH titration; for Vmax (Pyruvate): pyruvate titration
Experimental: To elucidate the underlying inhibitory mechanism, substrate competition assays were performed. LDHB inhibitory activity for AXKO-0046 was assessed at different concentrations of the substrate.
Moreover, the Km and Vmax values for LDHB were determined in the presence AXKO-0046. As the AXKO-0046 concentration increased in the reaction, both Vmax and Km decreased proportionally (Supplementary Fig. 3 and Table 1). The Lineweaver–Burke plot lines were nearly parallel (Fig. 3c,d), indicating uncompetitive inhibition with a strong preference for inhibiting the enzyme–substrate complex.
A solution of AXKO-0046 (0.00001, 0.0001, 0.001, 0.01, 0.1, 1, 10, and 100 μM) with 0.25 nM LDHB was then added. The enzymatic reactions were performed at room temperature for 15 min in triplicate. At each inhibitor concentration, the dependence of the initial reaction velocity on the substrate concentration was fitted to a nonlinear Michaelis–Menten model to obtain the Km and Vmax values using GraphPad Prism. Lineweaver–Burk plots were generated by superimposing the data of 1/[velocity] and 1/[substrate] and the line corresponding to the Michaelis–Menten nonlinear fit.

LDHB [3] = target: T1, LDHB; test: Time-dependent inhibition (pre-incubation of AXKO-0046 and LDHB); assay type: biochemical; conditions: pre-incubation with LDHB up to 120 min
Experimental: We then assessed whether there was any time dependence to the onset of inhibition by varying the time for which AXKO-0046 and LDHB were pre-incubated before initiating the enzymatic reaction.
Supplementary Figure 4. Time-dependent inhibition of LDHB activity by AXKO-0046. Time-dependent inhibition was measured by pre-incubating AXKO-0046 and LDHB for 0, 30, 60, or 120 min, as indicated, before initiating the LDHB reaction. Data are shown as mean (n = 2).

Cellular activity = assay type: cell-based
CC(=O)C(=O)O = system: T3, CC(=O)C(=O)O; test: Determination of substrate Km for LDHB (assay optimisation); assay type: biochemical, human; conditions: other: 500 µM NADH, increasing pyruvate
T3 construct: purchased R&D Systems
Experimental: Next, we optimised the assay conditions of RF-MS. Titration of human LDHB was examined at concentrations ranging from 0.0625 to 1 nM. […] We used 0.25 nM LDHB throughout assay development and screening to ensure enzyme activation. […] The Km values obtained from the two assays were consistent with the reported values for LDHB[15],[16].
as §3
Data were fitted to the Michaelis–Menten equations to obtain the kinetic constant Km using GraphPad Prism. Data are shown as mean ± standard deviation (n = 4).

[4] = system: NC(=O)C1=CN([C@@H]2O[C@H](COP(=O)(O)OP(=O)(O)OC[C@H]3O[C@@H](n4cnc5c(N)ncnc54)[C@H](O)[C@@H]3O)[C@@H](O)[C@H]2O)C=CC1; test: purified protein, by the assay type; conditions: other: 500 μM pyruvate, increasing NADH
[5] = read-out: EC50 (μM), LDHB inhibitory activity of AXKO-0046 derivatives

T1 sequence (P07195 whole entry): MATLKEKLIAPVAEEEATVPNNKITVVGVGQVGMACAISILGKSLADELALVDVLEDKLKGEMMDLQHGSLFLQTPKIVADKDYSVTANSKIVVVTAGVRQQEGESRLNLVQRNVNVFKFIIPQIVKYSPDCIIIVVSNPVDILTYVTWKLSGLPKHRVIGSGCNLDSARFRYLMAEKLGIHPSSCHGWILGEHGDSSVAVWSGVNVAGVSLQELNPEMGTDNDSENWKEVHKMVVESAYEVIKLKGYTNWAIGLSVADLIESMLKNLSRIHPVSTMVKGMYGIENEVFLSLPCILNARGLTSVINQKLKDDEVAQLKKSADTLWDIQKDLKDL

- EC50 (LDHB [1]; four-parameter fit, read-out: EC50 for LDHB): 0.042 µM
- inhibition of LDHA (concentration response curve) (human LDHA): did not inhibit LDHA
- mode of inhibition with respect to NADH and pyruvate (LDHB [2]): uncompetitive with both substrates
- Vmax (NADH) (LDHB [2]; AXKO-0046 0.00001 µM, 100 μM pyruvate): 10.1 µM/min
- Vmax (Pyruvate) (LDHB [2]; AXKO-0046 0.00001 µM, 100 μM NADH): 7.3 µM/min
- Vmax (NADH) (LDHB [2]; AXKO-0046 0.0001 µM, 100 μM pyruvate): 10.7 µM/min
- Vmax (Pyruvate) (LDHB [2]; AXKO-0046 0.0001 µM, 100 μM NADH): 6.9 µM/min
- Vmax (NADH) (LDHB [2]; AXKO-0046 0.001 µM, 100 μM pyruvate): 9.7 µM/min
- Vmax (Pyruvate) (LDHB [2]; AXKO-0046 0.001 µM, 100 μM NADH): 6.5 µM/min
- Vmax (NADH) (LDHB [2]; AXKO-0046 0.01 µM, 100 μM pyruvate): 8.3 µM/min
- Vmax (Pyruvate) (LDHB [2]; AXKO-0046 0.01 µM, 100 μM NADH): 6.6 µM/min
- Vmax (NADH) (LDHB [2]; AXKO-0046 0.1 µM, 100 μM pyruvate): 6.0 µM/min
- Vmax (Pyruvate) (LDHB [2]; AXKO-0046 0.1 µM, 100 μM NADH): 4.3 µM/min
- Vmax (NADH) (LDHB [2]; AXKO-0046 1 µM, 100 μM pyruvate): 2.9 µM/min
- Vmax (Pyruvate) (LDHB [2]; AXKO-0046 1 µM, 100 μM NADH): 2.0 µM/min
- Vmax (NADH) (LDHB [2]; AXKO-0046 10 µM, 100 μM pyruvate): 2.1 µM/min
- Vmax (Pyruvate) (LDHB [2]; AXKO-0046 10 µM, 100 μM NADH): 1.6 µM/min
- Vmax (NADH) (LDHB [2]; AXKO-0046 100 µM, 100 μM pyruvate): 2.2 µM/min
- Vmax (Pyruvate) (LDHB [2]; AXKO-0046 100 µM, 100 μM NADH): 1.6 µM/min
- IC50 (LDHB [2]; NADH 30 μM, 100 μM pyruvate): 702 nM
- IC50 (LDHB [2]; NADH 50 μM, 100 μM pyruvate): 330 nM
- IC50 (LDHB [2]; NADH 100 μM, 100 μM pyruvate): 223 nM
- IC50 (LDHB [2]; NADH 200 μM, 100 μM pyruvate): 94.2 nM
- IC50 (LDHB [2]; Pyruvate 30 μM, 100 μM NADH): 197 nM
- IC50 (LDHB [2]; Pyruvate 50 μM, 100 μM NADH): 114 nM
- IC50 (LDHB [2]; Pyruvate 200 μM, 100 μM NADH): 96.3 nM
Compound: c1ccc(CNCCc2c(CNC3CCCCCC3)[nH]c3ccccc23)cc1 [AXKO-0046, N-({3-[2-(benzylamino)ethyl]-1H-indol-2-yl}methyl) cycloheptanamine]
- inhibition potential with pre-incubation time (LDHB [3]): did not increase with pre-incubation time
- cellular activity (Cellular activity): no potent cellular activity

- EC50 (LDHB [1]; [5]): 8.3 µM
Compound: CN(CCc1c(CN(C)C2CCCCCC2)[nH]c2ccccc12)Cc1ccccc1 [AXKO-0058]

- EC50 (LDHB [1]; [5]): 0.25 µM
Compound: CN(CCc1c(CNC2CCCCCC2)[nH]c2ccccc12)Cc1ccccc1 [AXKO-0060]

- EC50 (LDHB [1]; [5]): > 100 µM
Compound: Cn1c(CNC2CCCCCC2)c(CCNCc2ccccc2)c2ccccc21 [AXKO-0067]

- EC50 (LDHB [1]; [5]): 7.4 µM
Compound: CN(Cc1[nH]c2ccccc2c1CCNCc1ccccc1)C1CCCCCC1 [AXKO-0077]

Compound: human LDHB (Homo sapiens)
- Km (CC(=O)C(=O)O): 116 µM
- Km [4]: 64 µM
